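Five compound concentrations were applied to cells in 96-well plates for 48 hours; endpoints were derived by simple linear interpolation of the resulting dose-response curve. GI50 = concentration required for 50% inhibition of growth.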 Active and inactive are the calls of the source. Cut-off read from the data, not from the text of the source: active = GI50 up to about 1.1 µM and inactive = higher.
What was measured:
Test in all cases: DTP human tumour cell line panel, 48 h
NCI-H522 = system: NCI-H522
SW-620 = system: SW-620
Malme-3M = system: Malme-3M
NCI-H460 = system: NCI-H460
SK-MEL-5 = system: SK-MEL-5
KM-20L2 = system: KM-20L2
ACHN = system: ACHN
U-251 = system: U-251
SNB-75 = system: SNB-75
HCC 2998 = system: HCC 2998
SK-MEL-2 = system: SK-MEL-2
Hs-578T = system: Hs-578T
HCT-116 = system: HCT-116
OVCAR-3 = system: OVCAR-3
SR = system: SR
M14 = system: M14
MDA-MB-231 = system: MDA-MB-231
TK-10 = system: TK-10
NCI-H23 = system: NCI-H23
T47D = system: T47D

Measured: GI50

CCc1nc2cc(/N=N/c3c(O)ccc4ccccc34)ccc2[nH]1
inactive: NCI-H522 18.1 µM | SW-620 22.5 µM | Malme-3M 18.3 µM | NCI-H460 16.1 µM | SK-MEL-5 18.5 µM | KM-20L2 19.6 µM | ACHN 17.1 µM | U-251 16 µM | SNB-75 20.6 µM | HCC 2998 14.6 µM | SK-MEL-2 19.8 µM | Hs-578T 21.1 µM | HCT-116 15.5 µM | OVCAR-3 16.4 µM | SR 2.14 µM | M14 19.6 µM | MDA-MB-231 20.7 µM | TK-10 18.4 µM | NCI-H23 21.2 µM | T47D 24.3 µM
